From US12595230B2, “Substituted 6,7-dihydro-5H-benzo[7]annulene compounds and their derivatives, processes for their preparation and therapeutic uses thereof” (Sanofi, priority 2020, dated 2026) come the findings set out here.

The experiment concerns the target T1, ERα (Homo sapiens, UniProt P03372).
T1 construct: host or cells: MCF7
T1 sequence (P03372 1-595): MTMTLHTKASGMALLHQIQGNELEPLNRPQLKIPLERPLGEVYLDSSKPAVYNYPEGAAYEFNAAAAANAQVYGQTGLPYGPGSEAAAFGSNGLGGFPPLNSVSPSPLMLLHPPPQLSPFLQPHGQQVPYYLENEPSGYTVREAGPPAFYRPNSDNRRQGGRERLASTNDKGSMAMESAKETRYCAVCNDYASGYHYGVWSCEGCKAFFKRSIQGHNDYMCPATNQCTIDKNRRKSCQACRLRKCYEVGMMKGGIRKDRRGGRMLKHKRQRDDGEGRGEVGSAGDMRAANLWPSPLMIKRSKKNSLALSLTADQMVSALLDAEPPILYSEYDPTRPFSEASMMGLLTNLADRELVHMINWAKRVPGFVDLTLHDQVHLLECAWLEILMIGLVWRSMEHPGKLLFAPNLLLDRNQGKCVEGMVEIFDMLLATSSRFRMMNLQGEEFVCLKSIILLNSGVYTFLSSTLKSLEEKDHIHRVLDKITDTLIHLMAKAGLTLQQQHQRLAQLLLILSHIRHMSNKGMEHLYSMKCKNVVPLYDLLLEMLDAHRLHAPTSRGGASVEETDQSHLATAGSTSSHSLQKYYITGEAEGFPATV
Kind of experiment: Estrogen receptor degradation activity: breast cancer cell ERα in cell western assay (MCF7 cells). In kind it is cell-based. As to conditions: for % Degradation At 0.3 μM: 4 hours, relative to fulvestrant 0.1 μM positive control; for DC50 / IC50: 4 hours post compound addition, concentration which degrades 50% of the estrogen receptor; for DC50: read-out: Degradation IC50. The method, boiled down:
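Compounds were applied to MCF7 cells in stripped-serum, phenol red-free medium for 4 h at final 0.3–0.0000018 μM, with fulvestrant (0.1 μM) as control. Value: IC50 (nM) for 50% ERα degradation.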

For orientation: IC50 means the concentration that gives 50% inhibition. A high value points to lower potency.

Consider `Cc1cc2c(cc1C(=O)O)CCCC(c1ccc(Cl)cc1Cl)=C2c1ccc(CC2CN(CCCF)C2)cc1` [Example 249, 8-(2,4-dichlorophenyl)-9-(4-((1-(3-fluoropropyl)azetidin-3-yl)methyl)phenyl)-2-methyl-6,7-dihydro-5H-benzo[7]annulene-3-carboxylic acid], for which the “% Degradation At 0.3 μM” value was 90% and the DC50 was determined as 0.4 nM.
As to `O=C(O)c1ccc2c(c1)CCCC(c1cccc(Cl)c1C(F)(F)F)=C2c1ccc(CC2CN(CCCF)C2)cc1` [Example 226, 8-(3-chloro-2-(trifluoromethyl)phenyl)-9-(4-((1-(3-fluoropropyl)azetidin-3-yl)methyl)phenyl)-6,7-dihydro-5H-benzo[7]annulene-3-carboxylic acid], the “% Degradation At 0.3 μM” value was 90% and the IC50 worked out at 0.1 nM.
Regarding `COc1ccc(C2=C(c3ccc(CC4CN(CCCF)C4)cc3)c3ccc(C(=O)O)cc3CCC2)c(F)c1` [Example 16, 8-(2-fluoro-4-methoxyphenyl)-9-(4-((1-(3-fluoropropyl)azetidin-3-yl)methyl)phenyl)-6,7-dihydro-5H-benzo[7]annulene-3-carboxylic acid], the “% Degradation At 0.3 μM” value was determined as 94% and the DC50 came to 0.4 nM.
Turning to `Cc1cc(F)ccc1C1=C(c2ccc(CC3CN(CCCF)C3)cc2)c2ccc(C(=O)O)cc2CCC1` [Example 33, 8-(4-fluoro-2-methylphenyl)-9-(4-((1-(3-fluoropropyl)azetidin-3-yl)methyl)phenyl)-6,7-dihydro-5H-benzo[7]annulene-3-carboxylic acid], the “% Degradation At 0.3 μM” value came to 89% and the DC50 worked out at 0.2 nM.
Take `Cl.O=C(O)c1ccc2c(c1)CCCC(c1ccc(F)cc1Cl)=C2c1ccc(CC2CN(CCCF)C2)cc1` [Example 8, 8-(2-chloro-4-fluorophenyl)-9-(4-((1-(3-fluoropropyl)azetidin-3-yl)methyl)phenyl)-6,7-dihydro-5H-benzo[7]annulene-3-carboxylic acid]: the “% Degradation At 0.3 μM” value is recorded as 92% and the DC50 was 0.4 nM.
Regarding `COc1cc(C2=C(c3ccc(CC4CN(CCCF)C4)cc3)c3ccc(C(=O)[O-])cc3CCC2)cc(C(F)(F)F)n1.[Na+]` [Example 274, sodium 9-(4-((1-(3-fluoropropyl)azetidin-3-yl)methyl)phenyl)-8-(2-methoxy-6-(trifluoromethyl)pyridin-4-yl)-6,7-dihydro-5H-benzo[7]annulene-3-carboxylate], the “% Degradation At 0.3 μM” value worked out at 84% and the DC50 stood at 6.5 nM.
As to `CC1CCc2cc(C(=O)O)ccc2C(c2ccc(CC3CN(CCCF)C3)cc2)=C1c1cccc(C(F)(F)F)c1` (racemic) [Example 333, 9-(4-((1-(3-fluoropropyl)azetidin-3-yl)methyl)phenyl)-7-methyl-8-(3-(trifluoromethyl)phenyl)-6,7-dihydro-5H-benzo[7]annulene-3-carboxylic acid], the “% Degradation At 0.3 μM” value is on record as 87% and the DC50 amounted to 0.4 nM.
Consider `O=C(O)c1ccc2c(c1)CCCC(c1cnccc1C(F)(F)F)=C2c1ccc(CC2CN(CCCF)C2)cc1` [Example 214, 9-(4-((1-(3-fluoropropyl)azetidin-3-yl)methyl)phenyl)-8-(4-(trifluoromethyl)pyridin-3-yl)-6,7-dihydro-5H-benzo[7]annulene-3-carboxylic acid], for which the “% Degradation At 0.3 μM” value stood at 86% and the DC50 was 2.8 nM.
As to `C[C@H]1CC[C@@H](C2=C(c3ccc(CC4CN(CCCF)C4)cc3)c3ccc(C(=O)O)cc3CCC2)CC1` [Example 14, 9-(4-((1-(3-fluoropropyl)azetidin-3-yl)methyl)phenyl)-8-((1s,4s)-4-methylcyclohexyl)-6,7-dihydro-5H-benzo[7]annulene-3-carboxylic acid], the “% Degradation At 0.3 μM” value is on record as 80% and the DC50 was 0.8 nM.
For `O=C(O)c1ccc2c(c1)CCCC(c1ncc(Cl)cc1C(F)(F)F)=C2c1ccc(CC2CN(CCC(F)F)C2)cc1` [Example 291, 8-(5-chloro-3-(trifluoromethyl)pyridin-2-yl)-9-(4-((1-(3,3-difluoropropyl)azetidin-3-yl)methyl)phenyl)-6,7-dihydro-5H-benzo[7]annulene-3-carboxylic acid] the same measures were 84% and 0.8 nM.
For `Cc1cc(Cl)ccc1C1=C(c2ccc(CC3CN(CCCF)C3)cc2)c2ccc(C(=O)O)cc2CCC1` [Example 25, 8-(4-chloro-2-methylphenyl)-9-(4-((1-(3-fluoropropyl)azetidin-3-yl)methyl)phenyl)-6,7-dihydro-5H-benzo[7]annulene-3-carboxylic acid], the “% Degradation At 0.3 μM” value is on record as 91% and the DC50 stood at 0.3 nM.
For the compound `CC1CCc2cc(C(=O)O)ccc2C(c2ccc(CC3CN(CCCF)C3)cc2)=C1c1ccc(Cl)cc1Cl` (single isomer, unassigned) [Example 303, 8-(2,4-dichlorophenyl)-9-(4-((1-(3-fluoropropyl)azetidin-3-yl)methyl)phenyl)-7-methyl-6,7-dihydro-5H-benzo[7]annulene-3-carboxylic acid], the “% Degradation At 0.3 μM” value came out at 90% and the DC50 is 0.4 nM.
With `O=C(O)c1ccc2c(c1)CCCC(c1ccc(F)cc1C(F)(F)F)=C2c1ccc(CC2(F)CN(CCCF)C2)cc1` [Example 241, 9-(4-((3-fluoro-1-(3-fluoropropyl)azetidin-3-yl)methyl)phenyl)-8-(4-fluoro-2-(trifluoromethyl)phenyl)-6,7-dihydro-5H-benzo[7]annulene-3-carboxylic acid], the “% Degradation At 0.3 μM” value turned out to be 92% and the DC50 amounted to 3.7 nM.
For the compound `Cl.O=C(O)c1ccc2c(c1)CCCC(c1ccc(Cl)c(F)c1Cl)=C2c1ccc(CC2CN(CCCF)C2)cc1` [Example 211, 8-(2,4-dichloro-3-fluorophenyl)-9-(4-((1-(3-fluoropropyl)azetidin-3-yl)methyl)phenyl)-6,7-dihydro-5H-benzo[7]annulene-3-carboxylic acid hydrochloride], the “% Degradation At 0.3 μM” value came out at 96% and the midpoint of inhibition, the IC50, lay at 0.1 nM.
Turning to `Cl.O=C(O)c1ccc2c(c1)CCCC(c1ccc(Cl)cc1Cl)=C2c1ccc(CC2CN(CCCF)C2)cc1F` [Example 47, 8-(2,4-dichlorophenyl)-9-(2-fluoro-4-((1-(3-fluoropropyl)azetidin-3-yl)methyl)phenyl)-6,7-dihydro-5H-benzo[7]annulene-3-carboxylic acid], the “% Degradation At 0.3 μM” value is recorded as 93% and the DC50 amounted to 0.4 nM.
`O=C(O)c1ccc2c(c1)CCCC(c1ncc(Cl)cc1Cl)=C2c1ccc(CC2CN(CCCF)C2)cc1` [Example 234, 8-(3,5-dichloropyridin-2-yl)-9-(4-((1-(3-fluoropropyl)azetidin-3-yl)methyl)phenyl)-6,7-dihydro-5H-benzo[7]annulene-3-carboxylic acid]: the “% Degradation At 0.3 μM” value was 84% and the DC50 stood at 1.3 nM.
In the case of `Cc1c(C2=C(c3ccc(CC4CN(CCC(F)F)C4)cc3)c3ccc(C(=O)O)cc3CCC2)cccc1C(F)(F)F` [Example 287, 9-(4-((1-(3,3-difluoropropyl)azetidin-3-yl)methyl)phenyl)-8-(2-methyl-3-(trifluoromethyl)phenyl)-6,7-dihydro-5H-benzo[7]annulene-3-carboxylic acid], the “% Degradation At 0.3 μM” value stood at 86% and the DC50 is 0.4 nM.
With `O=C(O)c1ccc2c(c1)CCCC(c1ccc(Cl)cc1Cl)=C2c1ccc(C(=O)C2CN(CCCF)C2)cc1` [Example 39, 8-(2,4-Dichlorophenyl)-9-(4-(1-(3-fluoropropyl)azetidine-3-carbonyl)phenyl)-6,7-dihydro-5H-benzo[7]annulene-3-carboxylic Acid], the “% Degradation At 0.3 μM” value was 92% and the DC50 was found to be 1.2 nM.
For the compound `O=C(O)c1ccc2c(c1)CCCC(c1ccc(Cl)cc1Cl)=C2c1ccc(C(O)C2CN(CCCF)C2)cc1` (single isomer, unassigned) [Example 41, 8-(2,4-dichlorophenyl)-9-(4-((1-(3-fluoropropyl)azetidin-3-yl)(hydroxy)methyl)phenyl)-6,7-dihydro-5H-benzo[7]annulene-3-carboxylic acid], the “% Degradation At 0.3 μM” value was 95% and the DC50 was found to be 1.6 nM.
On to `Cc1cccc(C2=C(c3ccc(CC4CN(CCCF)C4)cc3)c3ccc(C(=O)O)cc3CCC2)c1C(F)(F)F.Cl` [Example 313, 9-(4-((1-(3-fluoropropyl)azetidin-3-yl)methyl)phenyl)-8-(3-methyl-2-(trifluoromethyl)phenyl)-6,7-dihydro-5H-benzo[7]annulene-3-carboxylic acid hydrochloride], for which the “% Degradation At 0.3 μM” value was found to be 90% and the DC50 came to 0.3 nM.
Turning to `CC1CCc2cc(C(=O)O)ccc2C(c2ccc(CC3CN(CCCF)C3)cc2)=C1c1ccc(Cl)cc1` (single isomer, unassigned) [Example 327, 8-(4-chlorophenyl)-9-(4-((1-(3-fluoropropyl)azetidin-3-yl)methyl)phenyl)-7-methyl-6,7-dihydro-5H-benzo[7]annulene-3-carboxylic acid], the “% Degradation At 0.3 μM” value was 86% and the DC50 stood at 4.7 nM.
